Where a name gives a salt, the structure may show the parent alone.
Columns and labels:
protein kinase C (PKC) = test: Mixed micelle assay of protein kinase C; assay type: biochemical, rat; settings: pure cationic cholesterol derivative; diolefin, phosphatidyl serine and Ca2+ stimulated PKC; read-out: PKC Inhibition IC50
Method: As rapidly as possible, brains for 25 Sprague-Dawley rats (150-200 g) were removed, washed with 100 ml of 20 mM TRIS, 1 mM EDTA, 1 mM EGTA, pH 7.5, and homogenized in 150 ml of ice cold 20 mM TRIS, 10 mM EGTA, 2 mM EDTA, 10 mM DTT, 0.25 M sucrose, 2 mM PMSF and 100 μg/ml leupeptin, pH 7.5. The homogenate was immediately centrifuged at 100,000 g for 40 minutes at 4° C. in a Beckman Ti 50.2 rotor. The supernatant was applied to a 2.5×20 cm column of DEAE Sepharose (fast flow) containing 60 of resin equilibrated with 20 mM TRIS, 1 mM EDTA, 1 mM DTT, pH 7.5 (buffer A). The column was washed with 300 ml of buffer A and an additional 200 ml of buffer A containing 0.03 M KCl. Protein kinase C was eluted with a 500 ml continuous KCl gradient (0.03-0.3 M KCl). Fractions of 5 ml volumes were collected. Fractions showing calcium and phospholipid dependence were pooled; the salt concentration was adjusted to 1.5 KCl with the appropriate quantity of solid KCl. The crude sample containing 1.5 M KCl was stirred for 15 minutes and subsequently loaded onto a 1×10 cm column containing 9 ml Phenyl sepharose equilibrated with 1.5 M KCl in 20 mM TRIS, 0.5 mM EGTA, 1 mM DTT, pH 7.5 (buffer B). The column was washed with 90 ml of buffer B containing 1.5 M KCl. PKC was eluted with a 100 ml continuous KCl gradient (1.5-0 M KCl). Fractions of 3 ml volumes were collected. The column was washed with an additional 50 ml of buffer B. Most of the enzyme activity eluted during this stage. Fractions showing calcium and phospholipid dependence were pooled and concentrated to 4 ml using an Amicon ultrafiltration cell fitted with a YM-10 filter. The concentrated sample was loaded onto a 2.5×100 cm column containing 400 ml of Sephacryl S-200 HR beads equilibrated with buffer B containing 10% glycerol (buffer C). Fractions of 3 ml volumes were collected. About 150 ml of buffer was run through; PKC eluted very close to the column void volume. The fractions showing calcium and phospholipid dependence were pooled and loaded onto a 0.5×5 cm column containing 2.5 ml polylysine agarose equilibrated with buffer C. PKC was eluted with a 40 ml continuous KCl gradient (0-0.8 M KCl). Fractions of 1 ml volumes were collected. The first few active fractions were contaminated. The uncontaminated fractions were pooled, concentrated, and diluted with buffer C to remove the high salt content. After reconcentrating, the sample was divided into working portions, frozen in liquid nitrogen and stored at −80° C. Full activity was regained after rapid thawing. Trace impurities (116 k, 66 k, and 50 k Mr) could still be detected when the gel was silver stained heavily. The enzyme gave a specific activity of 200 nmoles phosphate incorporated per minute per milligram of protein when assayed for histone phosphorylation using the Triton mixed micelle assay with 6.5 mole % phosphatidylserine, 2.5 mole % DAG and 100 μM calcium present. Specific activities ranging from 30 nmoles/min/mg to 600 nmoles/min/mg have been observed for PKC using the Triton mixed micelle assay under the same conditions.
Phosphatidylserine and 1,2-diolefin with and without additive were dissolved in a solution of chloroform/methanol (2:1, v/v). Solvent was evaporated with a stream of nitrogen and last traces removed using a vacuum desiccator at 40° C. The lipid films were then solubilized by the addition of 3% Triton X-100, vortexed vigorously for 30 seconds and then incubated at 30° C. for 10 minutes to allow for equilibration. […]

mouse L929 cells [1] = test: Transfection of L929 cells with pUCSV2CAT, CAT activity; assay type: cell-based; parameters: Relative CAT Activity: scale not given here; settings: for Relative CAT Activity: dispersion with co-lipid DOPE, plasmid pUCSV2CAT, L929 cells
Method: (§1) The cationic cholesterol derivatives of the invention were mixed with a phospholipid co-lipid in chloroform solution at different molar ratios. The solvent was removed by evaporation under a stream of N2 gas and desiccated in vacuo for at least 30 minutes. The dry lipid film was hydrated in 20 mM Hepes buffer, pH 7.8, overnight. The suspension was sonicated in a bath-type sonicator (Laboratory Supplies, Hicksville, N.Y.) to generate small particle dispersions (average diameter=150 nm). The co-lipid is phosphatidylethanolamine.
Plasmid pUCSV2CAT (approximately 5kb in size) containing the structural gene of E. coli chloramphenicol acetyl transferase (CAT) driven by the SV40 virus early promoter was used as a model for the polyanions to be delivered by the cationic lipid dispersions. DNA was mixed with the cationic lipid dispersions of the invention in 1 ml serum-free M199 medium or McCoy's medium to form DNA/lipid complex. Cultured mammalian cells of about 80-100% confluency in a 6-well plate were washed once with serum-free medium. The DNA/lipid complex was added to the washed cells which were incubated at 37° C. for 5 hours. The cells were washed again and the serum-containing medium was added. Cells were harvested 30-72 hours later and extracted for cellular proteins. The CAT activity in the extracted protein was measured by using either [^14C] chloramphenicol or [^3H] acetyl CoA as a radiolabeled substrate. One activity unit of CAT is defined as nmole of radiolabeled substrate converted to the radiolabeled product in one minute. Protein content in the cell extracts was measured by the Bradford (BIORAD) assay.
Plasmid DNA, pUCSV2CAT, was used as a model compound for polyanions because it contains a structural gene for CAT. The efficiency of intracellular delivery can be readily assayed by the expression of CAT activity in the extracted proteins of the treated cells. Table 1 lists the CAT activity of mouse L929 cells which have been transfected with this plasmid DNA as mediated by various cationic lipid dispersions. In addition, the inhibitory activity of the pure cationic cholesterol derivatives on diolefin, phosphatidyl serine (PS), and Ca^2+stimulated protein kinase C was also measured. This activity was expressed as an IC50 which is the concentration at which 50% of PKC activity was inhibited.

[2] = Formation of homogenous dispersion by sonication; assay type: physicochemical; settings: sonication in low ionic strength buffer
Method: as §1
None of the cationic cholesterol derivatives by themselves form stable homogenous dispersion by sonication in a low ionic strength buffer. When stable dispersions are desired, it was necessary to add an acidic or neutral phospholipid to form mixed lipid dispersion. […] In the case of compound XIV, a minimal ration of phosphatidyl choline (PC) or phosphatidyl ethanolamine (PE) to XIV=4:6 is required. Such non-cationic lipid used in the dispersion is called co-lipid.

mouse L929 cells [3] = test: Transfection of L929 cells with pUCSV2CAT, CAT activity; assay type: cell-based; settings: molar ratio 1:1, L929 cells (FIG. 4)

Row | Compound | IC50 (protein kinase C (PKC)) [µM] | Relative CAT Activity (mouse L929 cells [1]) | further results
1 | CC(C)CCCC(C)C1CCC2C3CC=C4CC(OC(=O)CCC(=O)OCCN(C)CCN(C)C)CCC4(C)C3CCC12C (stereo not drawn) [XII, 2-{[2-(dimethylamino)ethyl]methylamino}ethyl-Cholesteryl-3β-Oxysuccinate] | 164 | 19 | melting point: 50 to 52 °C
2 | CC(C)CCCC(C)C1CCC2C3CC=C4CC(OC(=O)NCCN(C)C)CCC4(C)C3CCC12C (stereo not drawn) [Compound XIV, 3β[N-(N′,N′-dimethylaminoethane)-carbamoyl]cholesterol] | > 1000 | 75 | –
3 | CC(C)CCCC(C)C1CCC2C3CC=C4CC(OC(=O)CCC(=O)OCCN(C)CC[N+](C)(C)C)CCC4(C)C3CCC12C (stereo not drawn) [XIII, 2-{[2-Trimethylammonio]ethylmethylamino}ethyl-Cholesteryl-3β-Oxysuccinate Iodine Salt] | 20 | – | –
4 | CC(C)CCCC(C)C1CCC2C3CC=C4CC(OC(=O)CCC(=O)OC(CN(C)C)CN(C)C)CCC4(C)C3CCC12C (stereo not drawn) [Compound X, 1,3-Bi-Dimethylamino-2-Propyl-Cholesteryl-3β-Oxysuccinate] | 408 | 0.5 | –
5 | 3β[N-(polyethyleneimine)-carbamoyl]cholesterol [XV] | – | 11 | –
6 | CC(C)CCCC(C)C1CCC2C3CC=C4CC(C(=O)NCCN(C)C)CCC4(C)C3CCC12C (stereo not drawn) [Compound III, Cholesteryl-3β-Carboxyamidoethylenedimethylamine] | 258 | 18 | melting point: 167 to 169 °C
7 | CC(C)CCCC(C)C1CCC2C3CC=C4CC(OC(=O)CCC(=O)NCCN(C)C)CCC4(C)C3CCC12C (stereo not drawn) [VIII, Cholesteryl-3β-oxysuccinamidoethylenedimethylamine] | 191 | 100 | Content of cationic lipid in DOPE dispersion at maximal DNA delivery activity (mouse L929 cells [1]; DOPE co-lipid, L929 cells (FIG. 5)): 20-50%; DNA delivery activity of mixed dispersion (mouse L929 cells [1]; co-lipid DOPE, molar ratio 1:1, L929 cells (FIG. 4)): only DOPE supported the delivery activity; Minimal ratio of co-lipid (PC or PE) to cationic lipid required to form a uniform dispersion [2]: 1 part of PC or PE and 9 parts of compound VIII; DNA delivery activity of mixed dispersion (mouse L929 cells [3]; acidic co-lipids PS and PG): None of the acidic lipids, such as PS and phosphatidylglycerol (PG) showed any activity; DNA delivery activity of mixed dispersion (mouse L929 cells [3]; other neutral co-lipids DOPC, N-methyl-DOPE, N,N-dimethyl DOPE): little or no activity
8 | CC(C)CCCC(C)C1CCC2C3CC=C4CC(OC(=O)CCC(=O)NCC[N+](C)(C)C)CCC4(C)C3CCC12C (stereo not drawn) [IX, Cholesteryl-3β-Oxysuccinamidoethylenetrimethylammonium Iodide] | 59 | 50 | –
9 | CC(C)CCCC(C)C1CCC2C3CC=C4CC(C(=O)NCCN)CCC4(C)C3CCC12C (stereo not drawn) [Compound VII, Cholesteryl-3β-Carboxyamidoethyleneamine] | 246 | – | –
10 | CC(C)CCCC(C)C1CCC2C3CC=C4CC(C(=O)NCC[N+](C)(C)C)CCC4(C)C3CCC12C (stereo not drawn) [IV, Cholesteryl-3β-Carboxyamidoethylenetrimethylammonium Iodide] | 12 | – | –
11 | CC(C)CCCC(C)C1CCC2C3CC=C4CC(C(=O)OC(CN(C)C)CN(C)C)CCC4(C)C3CCC12C (stereo not drawn) [Compound V, 1,3-Bis-Dimethylamino-2-Propyl-Cholesteryl-3β-Carboxylate] | 643 | 2 | –
12 | CC(C)CCCC(C)C1CCC2C3CC=C4CC(C(=O)OC(CN(C)C)C[N+](C)(C)C)CCC4(C)C3CCC12C (racemic) [Compound VI, 1-Dimethylamino-3-Trimethylammonio-DL-2-Propyl Cholesteryl Carboxylate Iodide Salt] | 11 | – | –
13 | CC(C)CCCC(C)C1CCC2C3CC=C4CC(OC(=O)CCC(=O)OC(CN(C)C)C[N+](C)(C)C)CCC4(C)C3CCC12C (racemic) [Compound XI, 1-Dimethylamino-3-Trimethylammonio-DL-2-Propyl-Cholesteryl-3β-Oxysuccinate Iodide Salt] | 15 | – | –

— patent publication US6627218B2, “Cationic amphiphiles of cholesterol” (The University of Tennessee Research Foundation, priority 1991, dated 2003)
